# In patent publication US20210246164A1, “PEPTIDIC PROTEIN KINASE C INHIBITORS AND USES THEREOF” (UNIVERSITE DE GENEVE, priority 2016, published 2021):
# Where a SMILES comes first, the peptide text is derived from it. Where no end group is shown, it is not given here. The star is where a group is joined. Myristoyl = CCCCCCCCCCCCCC(=O)*
# Legend:
# in vitro = settings: human, Caco-2 cells
# Description: (§12) Viability of Caco-2 cells (human intestinal epithelial cell line) was determined by a cell proliferation assay using WST-1 based colorimetric assay. […] WST-1 reagent (diluted 1:10 in cell culture medium) was added as described in the instruction manual (Roche Diagnostics GMBH, Mannheim, Germany). Following 1-3 h incubation at 37° C. with the peptides or controls, absorbance at 450 nm (reference at 690 nm) was measured by a BioTek Synergy Mx plate reader. Percentage of cell viability was calculated based on the absorbance measured relative to that of cells exposed to only culture medium (control group). Sodium dodecyl sulfate (SDS) at 2% was used as a positive control for cell toxicity.
# [1] = test system: primary human bronchial epithelial cell monolayers; test: Permeabilization of fluorescein-conjugated dextran (FD) across bronchial epithelial monolayers (cumulative release, Papp); format: cell-based
# Description: (§1) To assess the potential effects of peptides of the invention on the permeabilization of therapeutic molecules, fluorescein-conjugated dextrans (FD) were used to as a model for assessing paracellular drug transport (apical to basolateral) across the epithelial monolayer.
# (§2) To ensure that the integrity of the monolayer was maintained during the course of the experiment, trans-epithelial electrical resistance (TEER) was measured before and after these studies, as described below.
# (§3) Mucilair™ human primary nasal and bronchial epithelial cells (Epithelix sarl, Geneva, Switzerland) were used (Huang et. al., 2013, Toxicol. in Vitro 27: 1151-1156).
# (§4) Before each experiment, the culture medium was removed from each compartment and the monolayer was washed once with 200 μl of saline (0.9%) and once with warm Hanks' Balanced Salt Solution (HBSS) (37° C.). In the basolateral compartment, 600 μL of pre-warmed HBSS was placed and the cells were returned to the incubator at 37° C. for 30 minutes to equilibrate. After equilibration, the peptides of the invention were applied to the apical side of an epithelial monolayer 5 minutes prior to the addition of FD solution. Peptide 1 according to the invention (P1 of SEQ ID NO: 2) was tested in comparison with comparative peptides C1 (SEQ ID NO: 4) and C2 (SEQ ID NO: 5). FD having a molecular weight (MW) of 4 and 150 kDa were used.
# (§5) All peptides were used at a final concentration of 10 μM. The vehicle was used as a control (CTRL). The FD solution was added to the apical compartment to make a final volume of 200 μl. Samples of 100 μL were taken from the basal compartment of each well every 30 minutes over a period of 150 minutes, with each volume being replaced with equal amount of fresh warm buffer to maintain sink condition. The fluorescence of FD was measured in black 96-well plates using a fluorescence plate reader (BioTek Synergy Mx plate reader, BioTek Instruments GmbH, Lucerne, Switzerland), using excitation and emission wavelengths of 485 and 520 nm, respectively. Cumulative release (ng) corresponds to the actual amount of drug released cumulatively and corresponds to the amount in the suspension medium at any time plus the amount of the drug lost during each sampling.
# (§6) Trans-epithelial electrical resistance (TEER): After addition of 200 μl of culture medium to the apical compartment of the tissue cultures, resistance was measured across cultures with an EVOMX volt-ohm-meter (World Precision Instruments UK, Stevenage) in triplicate for each time point. The TEER values (Ω) were converted normalized by using the following formula: TEER (Ωcm^2)=(resistance value (Ω)−100 (Ω))×0.33 (cm^2), where 100Ω is the resistance of the membrane and 0.33 cm^2 is the total surface of the epithelium.
# (§7) To assess the role of the membrane penetrating group (myristoyl) in peptides of the invention in the enhancing of the permeability of macromolecules through epithelial cell layers, the permeabilizing capacity of peptide P1 of the invention was compared to a comparative peptide C3 (SEQ ID NO: 6) corresponding to the same peptide without the myristoyl group. The permeabilizing capacity of a peptide P2 (SEQ ID NO: 3) of the invention was also assessed. Uptake experiments and TEER were conducted as described in Example 2.
# (§8) To assess the duration of the permeabilization effect of the peptide of the invention, apparent permeability of peptides of various lengths was evaluated as follows. Apparent permeability refers to the amount of released FD at that time point when the sample is collected.
# (§9) The tested Peptides, uptake experiments and TEER were as described in Example 2.
# (§10) Apparent permeability of FD: The apparent permeability (Papp) of FD was calculated using equation 1: Papp=(dQ/dt)/A*C0 (1)
# [2] = test system: primary human nasal epithelial cell monolayers; test: Permeabilization of fluorescein-conjugated dextran (FD) across nasal epithelial monolayers (cumulative release, Papp); format: cell-based
# Description: as §1, §2, §3, §4, §5, §6, §7, §8, §9, §10
# [3] = test system: TJ proteins occludin and ZO-1 in primary human bronchial epithelial cell monolayers; test: Immunofluorescence of TJ proteins occludin and ZO-1, bronchial cells (confocal microscopy); format: cell-based; settings: 50 μM peptide, 2 hours
# Description: (§11) The effect of peptides of the invention on the tight junction structure of human primary nasal and bronchial epithelial cells were evaluated by confocal microscopy as follows. Mucilair™ human primary nasal and bronchial epithelial cells (Epithelix Sarl, Geneva, Switzerland) were incubated with 50 μM of peptide of the invention P1 or comparative peptides C1 and C2 for 2 hours and washed twice with phosphate buffered saline (PBS) (without Ca^2+/Mg^2+) at 37° C. Cells were fixed with methanol/acetone (50:50) for 5 minutes at […], air-dried, and washed with TBST (mixture of tris-buffered saline (TBS) and Polysorbate 20). Cell monolayers were blocked using a solution of 3% bovine serum albumin (BSA) in PBS for 60 minutes at room temperature and incubated with primary antibody against occludin (Cat: 331588, Invitrogen, Zug, Switzerland); dilution (1:200)) and ZO-1 (zonula occludens-1 protein) (Cat: 339194, Invitrogen, Zug, Switzerland); dilution (1:200)) in dilution buffer. Samples were mounted (Vectashield mounting media with DAPI (4′,6-diamidino-2-phenylindole); Vector Laboratories) and assessed within the next 24 hours by using a laser-scanning confocal microscope (CLSM; Plan-Apochromat 63/1.40 (oil) DIC objective, Zeiss Axiovert 100M-LSM 510; Carl Zeiss, Oberkochen, Germany). […]
# [4] = test system: OCA_EGFR19del cultures (HCC827 cells); test: Tumor size in OncoCilAir non-small cell lung cancer model; format: cell-based
# Source text: HCC827 cells (lung adenocarcinoma) mutated in the tyrosine kinase domain of the EGFR (epidermal growth factor receptor) were used (model OncoCilAir™, wherein Non-Small Cell Lung Cancer (NSCLC) cells were tagged with green fluorescent protein (GFP)).
# Tumour morphometry was resolved by fluorescence microscopy using a Zeiss Axiocam microscope platform. Growth curves were based on various images were acquired every 2 days and the area of the green fluorescent protein positive (GFP^+) tumour was measured using the Image-Pro Plus Software (MediaCybernetics, Rockville, Md., USA). For each time point, the ratio of the total area occupied by tumours to the size of the insert was calculated and expressed as percentage of day 0, at the start of the treatment (tumor occupancy). Identical analyses settings, i.e. fixed fluorescence intensity threshold and fixed size threshold ([…]) were applied to all processed images. Percentage of tumour growth inhibition was calculated using the formula: (1−[tumour occupancy in treatment group/tumour occupancy in control group]×100).
# [5] = test system: TJ proteins occludin and ZO-1 in primary human nasal epithelial cell monolayers; test: Immunofluorescence of TJ proteins occludin and ZO-1, nasal cells (confocal microscopy); format: cell-based; settings: 50 μM peptide, 2 hours
# Description: as §11
# [6] = test system: Antigen-specific serum antibodies (IgG total and IgG1); test: Intranasal immunization with Ova, antigen-specific serum antibodies by ELISA; format: in vivo, mice; settings: i.n. 5 μg Ova with 5 μg P1 vs Ova alone; after three immunizations
# Source text: The effect of peptides of the invention on the efficacy of mucosal vaccines has been investigated by administering a combination of P1 with a soluble protein antigen and induced immunization has been investigated.
# 6 week-old female C57-BL/6 mice were purchased from Charles River Laboratories (Harlan, France) and hosted under standard conditions following the corresponding guidelines of Animal Ethic Committee. Mice (n=5) were immunized by intranasal (i.n.) administration under anesthesia on days 0, 14, and 28 with the following immunogens: saline (PBS) as a negative control, ovalbumin (Ova) (in NaCl 0.9% solution) or Ova+P1 Ova/dose (5 μg) (mixture of solution of Ova in NaCl 0.9% and solution of P1 in NaCl 0.9%) as a mixture were administered to each animal group in 12 μL (6 μL per nostril). P1 was used at a concentration of 5 μg/dose. […]
# Antigen-specific serum antibodies (IgG total and IgG1) were measured by ELISA (enzyme-linked immunosorbent assay). […] Plates were washed 4 times, and HRP was quantified by adding 100 μl of TMB (3,3′,5,5′-Tetramethylbenzidine) substrate (Pierce Protein Research Products; Rockford, Ill.). Antibody titers were determined at the midpoint of the optical density-log dilution curves after subtraction of the naive background, and none-responding mice were given an arbitrary titer of 10.
# Caco-2 cells = test: Cell viability, WST-1 based colorimetric assay; settings: 24 hours
# Description: as §12
# [7] = test system: non-small cell lung cancer (NSCLC); settings: compared to chemotherapies; cited from earlier work
# [8] = P1 1 μM apical + gefitinib 1 μM apical
# [9] = peptide 10 μM apical, 150 minutes, vs control
compound,measurement,setting,value
"CCCCCCCCCCCCCC(=O)N[C@@H](CO)C(=O)N[C@H](C(=O)N[C@@H](Cc1ccc(O)cc1)C(=O)N[C@@H](CCCNC(=N)N)C(=O)N[C@@H](CCCNC(=N)N)C(=O)NCC(=O)N[C@@H](C)C(=O)N[C@@H](CCCNC(=N)N)C(=O)N[C@@H](CCCNC(=N)N)C(=O)N[C@@H](Cc1c[nH]c2ccccc12)C(=O)N[C@@H](CCCNC(=N)N)C(=O)N[C@@H](CCCCN)C(=O)N[C@@H](CC(C)C)C(=O)O)[C@@H](C)CC [Peptide C1, reference compound] (Myristoyl-SIYRRGARRWRKL-OH; C-terminus assumed)","viability at 24 h, 50 µM",in vitro,55.2%
same,"viability at 24 h, 100 µM",in vitro,34%
same,reversibility of permeabilization of FD 4 kDa (decrease in Papp overtime),"[1]; peptide 10 μM, 150 minutes",reversible
same,reversibility of permeabilization of FD 4 kDa (decrease in Papp overtime),"[2]; peptide 10 μM, 150 minutes",reversible
"CCCCCCCCCCCCCC(=O)N[C@@H](C)C(=O)N[C@@H](CCCNC(=N)N)C(=O)N[C@@H](CCCNC(=N)N)C(=O)N[C@@H](Cc1c[nH]c2ccccc12)C(=O)N[C@@H](CCCNC(=N)N)C(=O)O [Peptide P1, Myr-ARRWR] (Myristoyl-ARRWR-OH)","viability at 24 h, 100 µM",in vitro,76.7%
same,redistribution of occludin and ZO-1,[3],causes desired TJ proteins redistribution
same,effect of combination on tumour size vs gefitinib alone,[4]; [8],significantly more efficacious than the gefitinib alone
same,time at which maximal therapeutic effect was obtained,[4]; [8],3 days
same,effect of combination on tumour progression vs gefitinib alone,[4]; P1 1 μM apical + gefitinib 1 μM basal,significantly potentiated the effects of the drug on tumour progression
same,effect of combination on tumour progression vs gefitinib alone,[4]; P1 1 μM apical + gefitinib 5 μM basal,significantly potentiated the effects of the drug on tumour progression
same,effect on tumor size,"[4]; P1 alone 1 μM apical, 6 expositions over 14 days, vs DMSO",had no effect on tumor size
same,redistribution of occludin and ZO-1,[5],causes desired TJ proteins redistribution
same,Ova-specific serum IgG1 response,[6],significantly higher
same,Ova-specific serum IgG (total) response,[6],significantly higher
same,toxicity on Caco-2 cells,Caco-2 cells; 50 μM,did not show any toxicity
same,concentration non-toxic to cells,Caco-2 cells,at least 50 μM
same,permeability of FD of 150 kDa (cumulative release),[1]; [9],significantly increases the permeability
same,permeability of fluorescein conjugated dextran of 4 kDa (cumulative release),[1]; [9],increased the permeability of the fluorescein conjugated dextran of 4 kDa in a significant manner
same,Papp for FD of 150 kDa over time,"[1]; peptide 10 μM, 150 minutes",immediate increase in the first 30 minutes and steadily decreased therefrom
same,reversibility of permeabilization of FD 4 kDa (decrease in Papp overtime),"[1]; peptide 10 μM, 150 minutes",reversible
same,"reversibility of the permeabilization effect, FD of 150 kDa","[1]; peptide 10 μM, FIG. 6",Reversibility of the permeabilization effect was also observed
same,permeability of FD of 150 kDa (cumulative release),[2]; [9],significantly increases the permeability
same,permeability of fluorescein conjugated dextran of 4 kDa (cumulative release),[2]; [9],increased the permeability of the fluorescein conjugated dextran of 4 kDa in a significant manner
same,Papp for FD of 150 kDa over time,"[2]; peptide 10 μM, 150 minutes",immediate increase in the first 30 minutes and steadily decreased therefrom
same,reversibility of permeabilization of FD 4 kDa (decrease in Papp overtime),"[2]; peptide 10 μM, 150 minutes",reversible
same,"reversibility of the permeabilization effect, FD of 150 kDa","[2]; peptide 10 μM, FIG. 6",Reversibility of the permeabilization effect was also observed
"COc1cc2ncnc(Nc3ccc(F)c(Cl)c3)c2cc1OCCCN1CCOCC1 [gefitinib, N-(3-Chloro-4-fluorophenyl)-7-methoxy-6-(3-morpholinopropoxy) quinazolin-4-amine]",progression free survival (PFS),[7],7.7-12.9 months
"ARRWR (not fully specified (N-terminus)) [Peptide C3, same peptide as P1 without the myristoyl group, reference compound]",permeability of fluorescein conjugated dextran of 4 kDa (cumulative release),[1]; [9],did not show significant difference in permeabilization ability compared to the negative control
same,permeability of fluorescein conjugated dextran of 4 kDa (cumulative release),[2]; [9],did not show significant difference in permeabilization ability compared to the negative control
Myr-AKRWR (Myristoyl-AKRWR) [Peptide P2],permeability of fluorescein conjugated dextran of 4 kDa (cumulative release),[2]; [9],increased the permeability of the fluorescein conjugated dextran of 4 kDa in a significant manner
"N-acetyl-ARR [Peptide C2, reference compound]",permeability of fluorescein conjugated dextran of 4 kDa (cumulative release),[1]; [9],not differing from control
same,permeability of fluorescein conjugated dextran of 4 kDa (cumulative release),[2]; [9],not differing from control
